Test results: ChEMBL document CHEMBL1255472, “Population pharmacokinetics of micafungin in neonates and young infants” (Antimicrob Agents Chemother, 2010)
Converted amounts (≈) assume the structure as drawn. Starred links: 1 amine or outer side, 2 acyl side, 3 side chain; linkers in the order of their positions; H or OH if unused. Positions of bridges follow the written chain, without caps; N, C: chain ends. Non-standard residues stand in square brackets, D forms with d. Residues, ends and D or L forms follow the SMILES beside them. *: point of attachment. hTyr(3S-OH,4S-OH,3'-OSO3H) = N[C@H](C(=O)O)[C@H](O)[C@@H](O)c1ccc(O)c(OS(=O)(=O)O)c1; Orn(4R-OH,5R-OH) = O=C([C@H](C[C@@H](O)[C@@H](O)N[*:3])N[*:1])[*:2]; Pro(3S-OH,4S-Me) = C[C@H]1CN[C@H](C(=O)O)[C@H]1O; X1 = CCCCCOc1ccc(-c2cc(-c3ccc(C(=O)*)cc3)no2)cc1; Gln(3R-OH) = NC(=O)C[C@@H](O)[C@H](N)C(=O)O; Hyp = O=C(O)[C@@H]1C[C@@H](O)CN1

Columns and labels:
Candida albicans = experiment: Antifungal activity against Candida albicans; assay type: functional
[1] = AUC (0 to 24 hrs) in candidiasis patient at 12 mg/kg, iv by HPLC; assay type: ADME, organism-based; parameters: time < 24 hr, dose 12 mg/kg, route intravenous; conditions: human, plasma
[2] = Volume of distribution in iv dosed adult human by HPLC; assay type: ADME, organism-based; conditions: in vivo
[3] = Volume of distribution in iv dosed human infant by HPLC; assay type: ADME, organism-based; conditions: in vivo
[4] = AUC (0 to 24 hrs) in candidiasis patient at 10 mg/kg, iv by HPLC; assay type: ADME, organism-based; parameters: time < 24 hr, dose 10 mg/kg, route intravenous; conditions: human, plasma
[5] = AUC (0 to 24 hrs) in candidiasis patient at 8 mg/kg, iv by HPLC; assay type: ADME, organism-based; parameters: time < 24 hr, dose 8 mg/kg, route intravenous; conditions: human, plasma
[6] = Ratio of AUC in neonates with Candida albican infection to MIC for Candida albicans; assay type: functional
[7] = Dose normalized clearance in iv dosed adult human by HPLC; assay type: ADME, organism-based; conditions: in vivo

In the case of `CCCCCOc1ccc(-c2cc(-c3ccc(C(=O)N[C@H]4C[C@@H](O)[C@@H](O)NC(=O)[C@@H]5[C@@H](O)[C@@H](C)CN5C(=O)[C@H]([C@H](O)CC(N)=O)NC(=O)[C@H]([C@H](O)[C@@H](O)c5ccc(O)c(OS(=O)(=O)O)c5)NC(=O)[C@@H]5C[C@@H](O)CN5C(=O)[C@H]([C@@H](C)O)NC4=O)cc3)no2)cc1` [MICAFUNGIN] (X1-[Orn(4R-OH,5R-OH)]T[Hyp][hTyr(3S-OH,4S-OH,3'-OSO3H)][Gln(3R-OH)][Pro(3S-OH,4S-Me)]; lactam 1-C), the MIC (Candida albicans) is reported as 0.125 µg/mL (≈ 0.0984 µM), the AUC(0-t) at 24 h [1] is reported as < 166 µg·h/mL and the Vd [2] is reported as 10.4 L. The Vd [3] was 10.3 L, the AUC(0-t) at 24 h [4] was < 166 µg·h/mL and the AUC(0-t) at 24 h [5] was < 166 µg·h/mL. For the same compound, the Ratio [6] was 1330 and the clearance [7] was 19.5 mL/min.
